Experimental data from PMC4513639 (Molecular pharmacology, 2014).
Where a chain is given by its changes, count along the chain named. Where two headings read alike, the source gives them in different places. Blank lines part the entries; values can stand above or below the compound they belong to.

Key:
A1-receptor-Y^288A [1] = format: cell-based, human; details: for receptor upregulation with only one of the inhibitors (immunoblot): sole inhibitor, 2 μM EHNA or 10 μM dipyridamole; for role of blockage of adenosine efflux in receptor upregulation: added to EHNA and 5-iodotubercidin
adenosine deaminase = details: ref Ingolia et al., 1985; cited from earlier work
A1 receptor = target: T1, A1 receptor (Homo sapiens, UniProt P30542); test: Binding of the inhibitors to the A1 receptor; details: nanomolar to micromolar range
T1 sequence (P30542 1-326): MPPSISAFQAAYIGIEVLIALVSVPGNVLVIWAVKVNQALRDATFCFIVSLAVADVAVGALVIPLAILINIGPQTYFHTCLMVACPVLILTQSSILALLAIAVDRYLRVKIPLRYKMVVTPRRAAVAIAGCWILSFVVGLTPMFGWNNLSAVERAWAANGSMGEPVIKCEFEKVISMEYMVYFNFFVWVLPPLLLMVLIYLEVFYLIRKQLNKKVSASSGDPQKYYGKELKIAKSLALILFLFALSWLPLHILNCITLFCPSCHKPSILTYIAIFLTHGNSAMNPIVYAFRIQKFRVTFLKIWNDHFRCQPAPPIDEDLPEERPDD

A1-receptor-Y^288A [2] = target: T2, A1-receptor-Y^288A (Homo sapiens, UniProt P30542, Y288A); format: binding; details: membranes of untreated cells
T2 sequence (P30542 1-326 Y288A): T1 sequence (P30542 1-326) with Y288A

A1-receptor-Y^288A [3] = format: cell-based, human; details: 24 hours; 1 μM DPCPX or inhibitor combination
A1-receptor-Y^288A [4] = format: cell-based, human; details: SF-TAP-tagged receptor, 24 hours treatment, 15 nM [3H]DPCPX
A1-receptor-Y^288A [5] = test: Confocal microscopy of YFP-tagged A1-receptor-Y288A distribution; format: cell-based, human; details: 1 μM DPCPX or combination of inhibitors
wild-type A1 receptor = target: T3, wild-type A1 receptor (Homo sapiens, UniProt P30542); format: binding; details: SF-TAP-tagged receptor
T3 sequence (P30542 1-326): T1 sequence (P30542 1-326)

human ENT1 = details: read-out: affinity; ref Ward et al., 2000; cited from earlier work
human ENT2 = details: read-out: affinity; ref Ward et al., 2000; cited from earlier work
[6] = 24 hours, 0.5 μM iodotubercidin

Compound: CCCCCC[C@@H]([C@@H](C)O)n1cnc2c(N)ncnc21 (racemic) [EHNA, Erythro-9-(2-hydroxy-3-nonyl)adenine]
receptor upregulation with only one of the inhibitors (immunoblot) (A1-receptor-Y^288A [1]; [6]): not present | Ki (adenosine deaminase): 33 nM | binding to the A1 receptor (A1 receptor): neither EHNA nor 5-iodotubercidin nor dipyridamole per se, nor their combination, used in the experiments bound to the A1 receptor

Compound: Nc1ncnc2c1c(I)cn2[C@@H]1O[C@H](CO)[C@@H](O)[C@H]1O [5-iodotubercidin]
receptor upregulation with only one of the inhibitors (immunoblot) (A1-receptor-Y^288A [1]; [6]): not present | binding to the A1 receptor (A1 receptor): neither EHNA nor 5-iodotubercidin nor dipyridamole per se, nor their combination, used in the experiments bound to the A1 receptor

Bmax (A1-receptor-Y^288A [2]): 486.3 ± 80.0 fmol/mg | binding of [3H]DPCPX by the receptors accumulated after treatment (A1-receptor-Y^288A [4]): did bind the radioligand | Bmax (wild-type A1 receptor; hypoxic cells (5% O2, 24 hours)): 15.0 ± 0.8 pmol/mg | Bmax (wild-type A1 receptor; normoxic cells): 12.2 ± 0.3 pmol/mg
Compound: CCCn1c(=O)c2[nH]c(C3CCCC3)nc2n(CCC)c1=O [DPCPX, 8-cyclopentyl-1,3-dipropylxanthine]
YFP fluorescence (flow cytometry) (A1-receptor-Y^288A [3]): substantial accumulation of YFP fluorescence | fate of receptor after cycloheximide block (mature glycosylated forms) (A1-receptor-Y^288A [1]; 4 hours preincubation, then cycloheximide 50 μg/ml for 2 or 4 hours): concomitant increase in the mature glycosylated forms of the receptor | level of receptor protein (immunoblot) (A1-receptor-Y^288A [1]; HEK293 stably expressing A1-receptor-Y288A-YFP, 24 hours, 1 μM DPCPX, 2 μM EHNA, 0.5 μM iodotubercidin, 10 μM dipyridamole): elevated levels of the receptor protein | time of maximum chaperoning effect (A1-receptor-Y^288A [1]; incubation 1, 2, 4, 8 or 24 hours): 24 h | distribution of receptor fluorescence (confocal) (A1-receptor-Y^288A [5]): the fluorescence was visualized on the cell surface

Compound: O=[N+]([O-])c1ccc(CSc2ncnc3c2ncn3[C@@H]2O[C@H](CO)[C@@H](O)[C@H]2O)cc1 [NBMPR, S-(4-nitrobenzyl)-6-thioinosine]
role of blockage of adenosine efflux in receptor upregulation (A1-receptor-Y^288A [1]; 24 hours): indispensable for receptor upregulation

Compound: OCCN(CCO)c1nc(N2CCCCC2)c2nc(N(CCO)CCO)nc(N3CCCCC3)c2n1 [dipyridamole]
role of blockage of adenosine efflux in receptor upregulation (A1-receptor-Y^288A [1]; 24 hours): indispensable for receptor upregulation | receptor upregulation with only one of the inhibitors (immunoblot) (A1-receptor-Y^288A [1]; [6]): not present | Ki (human ENT1): ~5 nM | Ki (human ENT2): ~350 nM | binding to the A1 receptor (A1 receptor): neither EHNA nor 5-iodotubercidin nor dipyridamole per se, nor their combination, used in the experiments bound to the A1 receptor

Compound: O=C1N[C@@H]2[C@@H](O)[C@@H](O)[C@H](O)[C@@H](CO)N2C1=O [kifunensine]
binding of [3H]DPCPX by the receptors accumulated after treatment (A1-receptor-Y^288A [4]): failed to bind the antagonist radioligand [^3H]DPCPX
